Reference: the supplement of paper PMC4862054

Experiments:
Details in all cases: incubation time: 72 h
[1] = system: MFM-223; experiment: normalised response (% of control), CellTox Green; higher = less cell death (100 = DMSO, 0 = benzethonium chloride kill control)
Method in brief: (§1)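 The table gives the normalised signal for a single concentration in each entry. Breast cancer cell lines were seeded (20 µl suspension) into 384-well plates holding compound at 5 concentrations in 10-fold steps over a compound-specific 10,000-fold range and incubated 72 h, then read for CellTox Green fluorescence (485/520 nm) and CellTiter-Glo luminescence. Normalisation on each plate used 0.1 % DMSO (100) and a positive kill control (0).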

[2] = system: CAL-120; experiment: as above
Method in brief: as §1

[3] = system: HCC1937; experiment: as above
Method in brief: as §1

[4] = system: BT-549; experiment: as above
Method in brief: as §1

[5] = system: HCC1599; experiment: as above
Method in brief: as §1

[6] = system: CAL-51; experiment: as above
Method in brief: as §1

[7] = system: CAL-85-1; experiment: as above
Method in brief: as §1

[8] = system: CAL-148; experiment: as above
Method in brief: as §1

[9] = system: BT-474; experiment: as above
Method in brief: as §1

[10] = system: MCF-10A; experiment: as above
Method in brief: as §1

[11] = system: MDA-MB-231; experiment: as above
Method in brief: as §1

[12] = system: HCC1143; experiment: as above
Method in brief: as §1

[13] = system: HDQ-P1; experiment: as above
Method in brief: as §1

[14] = system: MDA-MB-468; experiment: as above
Method in brief: as §1

[15] = system: DU-4475; experiment: as above
Method in brief: as §1

[16] = system: MDA-MB-453; experiment: as above
Method in brief: as §1

[17] = system: MDA-MB-436; experiment: as above
Method in brief: as §1

[18] = system: Hs578T; experiment: as above
Method in brief: as §1

[19] = system: MFM-223; experiment: normalised response (% of control), CellTiter-Glo; higher = more viable cells (100 = DMSO, 0 = benzethonium chloride kill control)
Method in brief: as §1

[20] = system: SK-BR-3; experiment: as above
Method in brief: as §1

[21] = system: MDA-MB-436; experiment: as above
Method in brief: as §1

[22] = system: MDA-MB-468; experiment: as above
Method in brief: as §1

| Structure (SMILES) | normalised response [1] [%] | normalised response [2] [%] | normalised response [3] [%] | normalised response [4] [%] | normalised response [5] [%] | normalised response [6] [%] | normalised response [7] [%] | normalised response [8] [%] | normalised response [9] [%] | normalised response [10] [%] | normalised response [11] [%] | normalised response [12] [%] | normalised response [13] [%] | normalised response [14] [%] | normalised response [15] [%] | normalised response [16] [%] | normalised response [17] [%] | normalised response [18] [%] | normalised response [19] [%] | normalised response [20] [%] | normalised response [21] [%] | normalised response [22] [%] |
| --- | --- | --- | --- | --- | --- | --- | --- | --- | --- | --- | --- | --- | --- | --- | --- | --- | --- | --- | --- | --- | --- | --- |
| NC(=O)NO [Hydroxyurea] (100000 nM) | 96.8 | 101 | 111 | 109 | 104 | 5.76 | 85.8 | 88.3 | 97.4 | 96.7 | 118 | 118 | 110 | 104 | 97.6 | 91.5 | – | – | – | – | – | – |
| O=NN(CCCl)C(=O)NC1CCCCC1 [Lomustine] (10000 nM) | 103 | 92.5 | 57.4 | 93.2 | 103 | 108 | 108 | 94.2 | 95.2 | 88.2 | – | 108 | 98.9 | 77.9 | 98.9 | 100 | 86.5 | 113 | – | – | – | – |
| O=C(O)CC[C@H]1CC[C@@](c2cc(F)ccc2F)(S(=O)(=O)c2ccc(Cl)cc2)CC1 [MK-0752] (1000 nM) | 57.7 | 102 | 104 | 107 | 109 | 118 | 70.6 | – | 104 | 114 | 111 | 88.8 | 110 | 106 | 104 | – | 96.9 | 91.9 | – | – | – | – |
| NC(=O)c1cccc2cn(-c3ccc([C@@H]4CCCNC4)cc3)nc12 [MK-4827] (10000 nM) | 98.7 | 97.3 | – | 103 | 97.4 | 63.6 | 70.3 | 79.6 | 97.5 | 94.8 | 139 | 127 | 97.9 | 116 | 89.2 | 105 | 105 | 118 | – | – | – | – |
| C[C@]12C=CC(=O)C=C1CC[C@@H]1[C@@H]2C(=O)C[C@@]2(C)[C@H]1CC[C@]2(O)C(=O)CO [Prednisone] (10000 nM) | 100 | -48.9 | 98.8 | 99.6 | 102 | 109 | 91.9 | 100 | 101 | 104 | 114 | 118 | 114 | 99.5 | 103 | 100 | 107 | – | – | – | – | – |
| CN1CCN(c2nc(C3=C(c4c[nH]c5ccccc45)C(=O)NC3=O)c3ccccc3n2)CC1 [Sotrastaurin] (10000 nM) | 101 | 94.2 | 68.4 | 99.7 | 102 | 94.2 | 128 | – | 98.4 | 104 | 115 | 93.5 | 102 | 194 | 100 | 107 | 68.3 | 118 | – | – | – | – |
| CC/C(=C(\c1ccccc1)c1ccc(OCCN(C)C)cc1)c1ccccc1 [Tamoxifen] (1000 nM) | 74.9 | 102 | – | 94 | 103 | 99.5 | 101 | 106 | 101 | 111 | 103 | 122 | – | 148 | 105 | 110 | 108 | 89.4 | 97.9 | 103 | 97.7 | 93.8 |
| CC/C(=C(\c1ccccc1)c1ccc(OCCN(C)C)cc1)c1ccccc1 [Tamoxifen] (10000 nM) | 88 | 83.5 | 3.06 | 86.1 | 80.4 | 105 | – | 80.1 | 9.58 | 81.5 | 13.6 | 108 | 105 | 7.06 | 91.1 | 35.6 | – | 74.1 | – | – | – | – |
| C[C@@H](C(=O)O)c1ccc(-c2ccccc2)c(F)c1 [Tarenflurbil] (1000 nM) | 87.5 | 100 | 115 | 108 | 96.3 | 114 | 87.9 | – | 97.1 | 91.4 | – | 105 | 65.7 | 112 | 96.6 | 102 | 60.6 | – | 95 | 87.8 | 100 | 94.8 |
| CC[C@@H]1C(=O)N(C)c2cnc(Nc3ccc(C(=O)N[C@H]4CC[C@H](N5CCN(CC6CC6)CC5)CC4)cc3OC)nc2N1C(C)C [Volasertib] (100 nM) | 53.5 | 89 | – | 79 | 72.2 | 46.4 | 57 | 31.8 | 94.5 | 24.1 | -0.74 | 81.8 | -27.2 | 85.1 | 93.2 | 98 | 64.2 | 61 | 42 | 16.1 | 50.1 | 36.5 |
